For the data set, the target named is IRF4. Particulars: ASO.

The values below come from the OligoGym collection.

Several values for one entry are separate records, joined by “and”; a condition that tells them apart may be missing. Equal values may be shown once. After the bases stand the sugars from the 5' end (letter, count) and the backbone: PS all phosphorothioate, else s phosphorothioate and o phosphodiester by linkage. Methylation of C is not given here. e = 2'-O-(2-methoxyethyl) (MOE); k = constrained ethyl (cEt); d = 2'-deoxy (DNA)

For “TACTGTTACCGATGCT (sugars k2 d9 e3 k2, PS)”, the target mRNA inhibition (MM.1R, 1 µM) is 29% and 8%.

Take GTCCACATACCTGAAA (sugars k3 d10 k3, PS): the target mRNA inhibition (MM.1R, 1 µM) amounted to 8%.

Regarding “AAGCTTGATAAAGGCT (sugars kkdddddddddekeke, PS)”, the target mRNA inhibition (MM.1R, 1 µM) is 38%.

GATTGATGTGATAGCT (sugars k3 d10 k3, PS): the target mRNA inhibition (SK-MEL-28, 4 µM) was found to be 56%.

Consider CACGAAACACAGTCTG (sugars k3 d10 k3, PS), for which the target mRNA inhibition (SK-MEL-28, 4 µM) worked out at 52%.

With GGCCAAATTGCAAAGG (sugars k3 d10 k3, PS), the target mRNA inhibition (SK-MEL-28, 4 µM) was found to be 48%.

For “ACGTGTGCTTGCCAAG (sugars kkddddddddddkeke, PS)”, the target mRNA inhibition (MM.1R, 1 µM) is 6% and 26%.

TACTAGATTGTAGGAC (sugars k3 d10 k3, PS): the target mRNA inhibition (SK-MEL-28, 4 µM) was determined as 27%.

Take GGACACCACCTCGAGG (sugars k3 d10 k3, PS): the target mRNA inhibition (MM.1R, 1 µM) was 1%.

On to “TTATGTTAGCCAATTC (sugars kddddddddddkekek, PS)”, for which the target mRNA inhibition (MM.1R, 1 µM) is 2% and 6%.

For TGGATCCTGAGAGTAA (sugars k3 d10 k3, PS), the target mRNA inhibition (MM.1R, 1 µM) turned out to be 0%.

CATAGCTAGTTCATTC (sugars k3 d10 k3, PS): the target mRNA inhibition (SK-MEL-28, 4 µM) is 35%.

Turning to “CTGCTTGAGGTTTTCC (sugars kkkddddddddkekek, PS)”, the target mRNA inhibition (MM.1R, 1 µM) amounted to 26%.

For the sequence “GATGTGATAGCTGAGC (sugars kdddddddddkekeke, PS)”, the target mRNA inhibition (MM.1R, 1 µM) was 18%.

For the sequence TTCGAGAGAAATATAC (sugars k3 d10 k3, PS), where the note is “MM.1R, 1 µM”, the target mRNA inhibition came to 22%.

For the sequence AGCTAGTTCATTCCCT (sugars k3 d10 k3, PS), where the note is “SK-MEL-28, 4 µM”, the target mRNA inhibition was found to be 48%.

In the case of AAACGGCCTGGAGGTG (sugars k3 d10 k3, PS), for the setting “MM.1R, 1 µM”, the target mRNA inhibition stood at 11%.

For CTTGTCTCCCCCAGAG (sugars k3 d10 k3, PS), the target mRNA inhibition (SK-MEL-28, 4 µM) turned out to be 3%.

As for CGCATTGCTAGATTCT (sugars k3 d10 k3, PS), the target mRNA inhibition reads like this: (MM.1R, 0.0625 µM) -9%; (MM.1R, 0.25 µM) 4%; (MM.1R, 1 µM) 37% and 27%; (MM.1R, 4 µM) 55%.

Take GGTAACAATACTGTAA (sugars k3 d10 k3, PS): the target mRNA inhibition (SK-MEL-28, 4 µM) is 59%.

With GGCTATCAGGATCTCA (sugars k3 d10 k3, PS), the target mRNA inhibition (SK-MEL-28, 4 µM) stood at 45%.

On to AACTGAGAGTGCGAGG (sugars k3 d10 k3, PS), for which the target mRNA inhibition (SK-MEL-28, 4 µM) worked out at 1%.

Turning to TCTCCAAAGCATAGAG (sugars k3 d10 k3, PS), the target mRNA inhibition (MM.1R, 1 µM) is -8%.

GCAAAAAATATAACGG (sugars k3 d10 k3, PS): the target mRNA inhibition (SK-MEL-28, 4 µM) was 47%.

For the sequence CTGTATGGAACCCCAA (sugars k3 d10 k3, PS), for the setting “MM.1R, 1 µM”, the target mRNA inhibition is 3%.

With TGCCAATCAGATGTCA (sugars k3 d10 k3, PS), the target mRNA inhibition (SK-MEL-28, 4 µM) stood at 22%.

With GAGGAAGCATAGAACA (sugars k3 d10 k3, PS), the target mRNA inhibition (SK-MEL-28, 4 µM) is 18%.

As for CAAGCATAAAAGGTTC (sugars k3 d10 k3, PS), under “SK-MEL-28, 4 µM”, the target mRNA inhibition came to 29%.

On to “AGTGATGTCAGGTTTT (sugars kkddddddddddkeke, PS)”, for which, where the note is “MM.1R, 1 µM”, the target mRNA inhibition came out at 32%.

On to “GTAGTATGAGAAACGG (sugars kkddddddddddkeke, PS)”, for which, where the note is “MM.1R, 1 µM”, the target mRNA inhibition is 28%.

Regarding CCTGTAGTATGAGAAA (sugars k3 d10 k3, PS), the target mRNA inhibition (SK-MEL-28, 4 µM) was 57%.

For “GGGATTATATACTGGT (sugars kkdddddddddkdkdk, PS)”, the target mRNA inhibition (MM.1R, 1 µM) stood at 41%.

As to GGCTGAACTGTGTAAT (sugars k3 d10 k3, PS), for the setting “SK-MEL-28, 4 µM”, the target mRNA inhibition worked out at 72%.

Take AGTGTAACTGAGGACT (sugars k3 d10 k3, PS): the target mRNA inhibition (SK-MEL-28, 4 µM) is -7%.

On to “TACTGTTACCGATGCT (sugars kkdddddddddkdkdk, PS)”, for which the target mRNA inhibition (MM.1R, 1 µM) was 7% and 18%.

For TCGGAGCGACCCAAAT (sugars k3 d10 k3, PS), the target mRNA inhibition (MM.1R, 1 µM) amounted to 12%.

As for GTACAGGACAGGTAAA (sugars k3 d10 k3, PS), where the note is “SK-MEL-28, 4 µM”, the target mRNA inhibition was determined as 25%.

Consider AGCAAGTGGAGGTCTT (sugars k3 d10 k3, PS), for which, where the note is “SK-MEL-28, 4 µM”, the target mRNA inhibition amounted to 63%.

With GAAGTTTACACTGGAT (sugars k3 d10 k3, PS), for the setting “SK-MEL-28, 4 µM”, the target mRNA inhibition was found to be 65%.

Regarding GCAGTCAATTGGACGC (sugars k3 d10 k3, PS), the target mRNA inhibition (SK-MEL-28, 4 µM) is 77%.

As to CAGCAAGTGTCTTCCA (sugars k3 d10 k3, PS), the target mRNA inhibition (SK-MEL-28, 4 µM) turned out to be 64%.

For the sequence “GTGTGCTTGCCAAGCC (sugars k2 d9 e3 k2, PS)”, the target mRNA inhibition (MM.1R, 1 µM) is 75% and 62%.

As to GATAACGAGGTGCCTT (sugars k3 d10 k3, PS), the target mRNA inhibition (SK-MEL-28, 4 µM) turned out to be 18%.

In the case of “TGATGTGATAGCTGAG (sugars kkdddddddddekeke, PS)”, for the setting “MM.1R, 1 µM”, the target mRNA inhibition is 60%.

For ACCTTAACCAATCCCA (sugars k3 d10 k3, PS), the target mRNA inhibition (SK-MEL-28, 4 µM) stood at 71%.

As to AGCACTGGCATTGAGA (sugars k3 d10 k3, PS), the target mRNA inhibition by setting is: (MM.1R, 0.074 µM) 4%; (MM.1R, 0.222 µM) 0%; (MM.1R, 0.666 µM) 10%; (MM.1R, 2 µM) 24%; (SK-MEL-28, 0.185 µM) -4% and 10% and -11%; (SK-MEL-28, 4 µM) 74%. Besides, the target mRNA inhibition (SK-MEL-28, 15 µM) was 86% and 83% and 98%.

With TGTAACTCTGAGTAGA (sugars k3 d10 k3, PS), for the setting “SK-MEL-28, 4 µM”, the target mRNA inhibition is 43%.

For the sequence CTCGAGGCCAACGACT (sugars k3 d10 k3, PS), the target mRNA inhibition (SK-MEL-28, 4 µM) came out at 1%.

GTTATCTATGGAAACC (sugars k3 d10 k3, PS): where the note is “SK-MEL-28, 4 µM”, the target mRNA inhibition was 42%.

“AGCAGTGATGTCAGGT (sugars kkdddddddddekeke, PS)”: the target mRNA inhibition is 32% (MM.1R, 0.0625 µM); 54% (MM.1R, 0.25 µM); 72% and 70% and 69% (MM.1R, 1 µM); 86% (MM.1R, 4 µM).

As to “GACACTTTTAGAGAGG (sugars k3 d9 k3 e1, PS)”, the target mRNA inhibition (MM.1R, 1 µM) stood at 24%.

For CCCCAGGGCCCTCGGT (sugars k3 d10 k3, PS), the target mRNA inhibition (SK-MEL-28, 4 µM) is 18%.

On to ACCCACCCAGTGTCTG (sugars k3 d10 k3, PS), for which the target mRNA inhibition (SK-MEL-28, 4 µM) worked out at 18%.

For the sequence GAAATGTCAAACCCTA (sugars k3 d10 k3, PS), for the setting “SK-MEL-28, 4 µM”, the target mRNA inhibition was determined as 71%.

Consider CTTTTTTGGCTCCCTC (sugars k4 d8 k4, PS), for which the target mRNA inhibition was -3% (MM.1R, 0.074 µM); -3% (MM.1R, 0.222 µM); 9% (MM.1R, 0.666 µM); 25% (MM.1R, 2 µM); 4% and 9% and 8% (SK-MEL-28, 0.185 µM); 46% (SK-MEL-28, 4 µM). The target mRNA inhibition runs as follows: (SK-MEL-28, 5 µM) 45% and 42% and 62%; (SK-MEL-28, 15 µM) 63% and 68% and 81%.

Consider AAGTGGAGGTCTTTGG (sugars k3 d10 k3, PS), for which, where the note is “SK-MEL-28, 4 µM”, the target mRNA inhibition was 66%.

Regarding CACCAGGAAACCGCTG (sugars k3 d10 k3, PS), the target mRNA inhibition (SK-MEL-28, 4 µM) was 15%.

As for AGACAGGTCTCTACCT (sugars k3 d10 k3, PS), where the note is “MM.1R, 1 µM”, the target mRNA inhibition was -12%.

For the sequence “ACTTTTAGAGAGGAGA (sugars e1 k2 d9 k2 e2, PS)”, the target mRNA inhibition (MM.1R, 1 µM) turned out to be 28%.

Take “TTTATGTTAGCCAATT (sugars kkdddddddddkdkdk, PS)”: the target mRNA inhibition (MM.1R, 1 µM) was 11% and 34%.

With GATTATATACTGGTTG (sugars k3 d10 k3, PS), the target mRNA inhibition (SK-MEL-28, 4 µM) was found to be 59%.

For GCATAAAAGGTTCCTG (sugars k4 d8 k4, PS), the target mRNA inhibition is 0% (MM.1R, 0.074 µM); -3% (MM.1R, 0.222 µM); -7% (MM.1R, 0.666 µM); 3% (MM.1R, 2 µM); 4% and 9% and 17% (SK-MEL-28, 0.185 µM); 47% (SK-MEL-28, 4 µM). The target mRNA inhibition is, setting by setting: (SK-MEL-28, 5 µM) 34% and 37% and 50%; (SK-MEL-28, 15 µM) 75% and 72% and 89%.

Regarding “GTGTCTAAAGTCCCAT (sugars kkddddddddddkeke, PS)”, the target mRNA inhibition (MM.1R, 1 µM) was 9% and 6%.

Take “GTTGGCTGGTCTTTGT (sugars k2 d9 e3 k2, PS)”: for the setting “MM.1R, 1 µM”, the target mRNA inhibition worked out at 24%.

With “CGTGTGCTTGCCAAGC (sugars k2 d9 e3 k2, PS)”, where the note is “MM.1R, 1 µM”, the target mRNA inhibition is 60% and 66%.

ATAAGATCCCACGAAG (sugars k3 d10 k3, PS): the target mRNA inhibition (SK-MEL-28, 4 µM) is -42%.

On to AACCATGTTCCTGAAG (sugars k3 d10 k3, PS), for which, for the setting “SK-MEL-28, 4 µM”, the target mRNA inhibition is 41%.

In the case of GAGGAACTAGTCGACA (sugars k3 d10 k3, PS), the target mRNA inhibition (SK-MEL-28, 4 µM) was determined as 39%.

On to AAGAGGCGACTGCTGA (sugars k3 d10 k3, PS), for which the target mRNA inhibition (SK-MEL-28, 4 µM) was found to be 35%.

As for “CTATAGTGTTCCAGGA (sugars kkdddddddddkdkdk, PS)”, the target mRNA inhibition runs as follows: (MM.1R, 0.074 µM) 19%; (MM.1R, 0.222 µM) 23%; (MM.1R, 0.666 µM) 42%; (MM.1R, 1 µM) 49%; (MM.1R, 2 µM) 68%.

As to ACAGATGGCATGCGAA (sugars k3 d10 k3, PS), the target mRNA inhibition (MM.1R, 1 µM) was determined as 19%.

With TCTAATGGTGCTCCTA (sugars k3 d10 k3, PS), the target mRNA inhibition (SK-MEL-28, 4 µM) was 51%.

For the sequence ACCATTCAGACAGATG (sugars k3 d10 k3, PS), the target mRNA inhibition (SK-MEL-28, 4 µM) is 30%.

Take TGCGAAGAATTTTAGC (sugars k3 d10 k3, PS): where the note is “SK-MEL-28, 4 µM”, the target mRNA inhibition turned out to be 41%.

Consider AGCTGAATGCTCTCCA (sugars k3 d10 k3, PS), for which the target mRNA inhibition (SK-MEL-28, 4 µM) is 78%.

“AGCAGTGATGTCAGGT (sugars k2 d9 e3 k2, PS)”: under “MM.1R, 1 µM”, the target mRNA inhibition is 69% and 56%.

Take CACTATTAAGAACTTG (sugars k3 d10 k3, PS): under “SK-MEL-28, 4 µM”, the target mRNA inhibition was found to be 33%.

Take GAAAGAGGCACCCTCC (sugars k3 d10 k3, PS): the target mRNA inhibition (SK-MEL-28, 4 µM) is 19%.

Consider GAAATGAACCCTAAGT (sugars k3 d10 k3, PS), for which the target mRNA inhibition (MM.1R, 1 µM) was -5%.

Regarding TGGAGATACTTGTACT (sugars k3 d10 k3, PS), the target mRNA inhibition is -15% (MM.1R, 0.0625 µM); -7% (MM.1R, 0.25 µM); 42% and 21% (MM.1R, 1 µM); 58% (MM.1R, 4 µM).
